Paper PMC10418970, “Effective and Selective Ru(II)-Arene Complexes Containing 4,4′-Substituted 2,2′ Bipyridine Ligands Targeting Human Urinary Bladder Cancer Cells” (International Journal of Molecular Sciences, 2023)

Key:
[1] = test system: EB-CTDNA adduct; experiment: EB/CTDNA fluorescence competition (quenching); type: binding, calf; conditions: [DNA] 5 μM, [EB] 5 μM, complex 0-50 μM
Procedure: To learn more about the binding properties of 1–7 with CTDNA, the fluorescence competition technique is employed. EB is an orange fluorescent dye and an intercalating agent for DNA.
3.2 Fluorescence titration experiments
The displacement of the EB-bound was obtained by
treated with a saturating ethidium bromide 5 µM.
Figure S5. […] [DNA]= 5 µM,
[EB] = 5 µM and [complex] = 0˗50 µM. […]

[2] = test system: Vero cells; experiment: MTT cell proliferation assay, Vero; type: cell-based, African green monkey; conditions: 24 h incubation; healthy cells
[3] = test system: EA.hy926 endothelial cells; experiment: MTT cell proliferation assay, EA.hy926; type: cell-based, human; conditions: 24 h incubation
[4] = Shake-flask water-octanol Log p; conditions: n-octanol / water containing 0.45% sodium chloride, 0.5 mM, 37 °C
Procedure: The complex was dissolved in a mixture with equal volumes of pre-saturated n-octanol and water to a final concentration of 0.5 mM. The mixture was shaken at 250 rpm for 24 h at 37 °C and then centrifuged at 3000 rpm for 10 min. The complex concentration (C) in each phase was measured by UV-Vis spectroscopy and used to calculate Log p, according to the formula Log p = log (Coctanol/Cwater).

[5] = test system: T24-bladder cells; experiment: MTT cell proliferation assay, T24; type: cell-based, human; conditions: 24 h incubation
[6] = molecular target: T1, Bovine serum albumin (BSA) (Bos taurus, UniProt P02769); experiment: BSA fluorescence titration (Stern-Volmer, Scatchard); type: binding; conditions: for number of binding sites (n) on BSA: Scatchard equation; for BSA quenching constant Kq: [BSA] 1 μM, complex 0-20 μM, phosphate buffer pH 7.2
T1 construct: purchased Sigma Aldrich
T1 sequence (P02769 25-607): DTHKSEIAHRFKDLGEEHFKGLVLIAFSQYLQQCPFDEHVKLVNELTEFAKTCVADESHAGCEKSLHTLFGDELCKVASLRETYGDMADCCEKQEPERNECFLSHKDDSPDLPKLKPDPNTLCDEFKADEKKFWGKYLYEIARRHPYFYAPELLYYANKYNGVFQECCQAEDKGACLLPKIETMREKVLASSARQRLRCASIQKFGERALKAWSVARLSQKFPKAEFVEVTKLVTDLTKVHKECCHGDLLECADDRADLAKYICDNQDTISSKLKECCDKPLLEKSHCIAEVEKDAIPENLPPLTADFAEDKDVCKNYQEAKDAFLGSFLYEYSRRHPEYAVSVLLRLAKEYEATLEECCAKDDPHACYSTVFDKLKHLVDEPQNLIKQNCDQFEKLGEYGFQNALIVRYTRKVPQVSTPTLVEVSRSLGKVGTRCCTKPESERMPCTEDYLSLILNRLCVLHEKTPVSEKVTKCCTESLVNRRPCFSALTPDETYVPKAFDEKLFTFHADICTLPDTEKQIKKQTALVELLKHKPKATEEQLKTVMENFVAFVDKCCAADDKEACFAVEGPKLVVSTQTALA
Text: To explore the mode of complex-protein interaction, we monitor the BSA fluorescence quenching at […] by addition of increasing amounts of 1–7 to a fixed quantity of BSA (Figure S7). […] The molar absorptivity of tyrosine and phenylalanine are 10- and 200-fold weaker than tryptophan, respectively, and are ignored in the modelling. […] The complex binding-induced fluorescence quenching is described by the linear Stern–Volmer relationship (Figure 12A) to obtain the quenching constant Kq (see SI for details). Further, the equilibrium binding constant (Kb) of the complex to BSA and the number of binding sites (n) are obtained by casting the fluorescence intensity in the absence of quencher (F^0) and quencher concentration [Q] dependent F into the Scatchard equation [35]: log [(F^0− F)/F] = log Kb + n log[Q], as shown in Figure 12B.
4 Interaction of complexes with Bovine serum albumin
4.1 Fluorescence titration
The interaction of complexes with BSA was studied using fluorescence spectra, recorded at a fixed excitation wavelength corresponding to BSA at 280 nm and monitoring the emission at 335 nm. Stock solution of BSA were prepared by dissolving commercial BSA in 50mM phosphate buffer (pH 7.2) and stored at 4 οC for further use.
Concentrated stock solution of each test compound were prepared by dissolving it in DMF-phosphate buffer (5:95) and diluted with phosphate buffer to get required concentrations. For the fluorescence measurements, 2.5 mL solution of BSA was titrated with successive additions of […] stock solution of complexes (0-20 µM) […]
Figure S7. Fluorescence quenching curves of BSA in the absence and presence of complexes 1-7. […]

[7] = test system: HepG-2-hepatic cells; experiment: MTT cell proliferation assay, HepG-2; type: cell-based, human; conditions: 24 h incubation
[8] = test system: MCF-10a-breast epithelial cells; experiment: MTT cell proliferation assay, MCF-10a; type: cell-based, human; conditions: 24 h incubation; healthy cells
[9] = Solubility (observation)
[10] = test system: T24 cells; experiment: Flow cytometry FITC Annexin V apoptosis assay; type: cell-based, human; conditions: at IC50 concentration (1: […]; 2: 14.5 μM)
Procedure: Figure S10. Cytotoxic effects of complexes ( 1-7) against (A) EA.hy-926, (B) HepG-2, (C) T24, (D) normal kidney (Vero) cells
and (E) MCF-10a-breast epithelial . Data expressed in SD±mean with three replicates.
After 24 h incubation, control and treated cells were stained with acriddine
orange (AO)/ethidium bromide (EB) and incubated for 10 min. The images were taken immediately under fluorescent
8. Flow cytometry studies
The cell apoptotic rate was determined by flow cytometry analysis with the fluorescein isothiocyanate (FITC)
Annexin V apoptosis detection kit (Multi Sciences, China). T24 cancer cells were collected by trypsinization, washed
twice and resuspended in […], 1 × binding buffer with […] of FITC Annexin V and […] of PI. After incubation for
15 min, the samples were subjected to analysis by flow cytometry. The results were analysed with the BD FACS Calibur™
(1 picture or pasted object on this page, not shown here)

Compound	Stern–Volmer quenching constant Kq (EB/CTDNA) [1]	apparent DNA binding constant Kapp [1]	IC50 [2]	IC50 [3]	Log p Exp. Shake Flask [4]	IC50 [5]	number of binding sites (n) on BSA [6]	BSA quenching constant Kq [6]	IC50 [7]	IC50 [8]	solubility [9]	apoptotic rate (late + early) [10]	early apoptosis (Q3) [10]	late apoptosis (Q2) [10]
CCOC(=O)c1ccnc(-c2cc(C(=O)OCC)ccn2)c1.Cc1ccc(C(C)C)cc1.[Cl-].[Cl-].[Ru+2] [Complex 4, [Ru-η^6-p-cymene-(4,4′-(COOC2H5)2bipy)Cl]Cl]	6.36 10^4 M^−1	3.18 10^6 M^−1	31.2 µM	32.3 µM	0.88	12.3 µM	1.0	3.777 × 10^4 10^4 M^−1	21.1 µM	40.1 µM				
COC(=O)c1ccnc(-c2cc(C(=O)OC)ccn2)c1.Cc1ccc(C(C)C)cc1.[Cl-].[Cl-].[Ru+2] [Complex 3, [Ru-η^6-p-cymene-(4,4′-(COOCH3)2bipy)Cl]Cl]	6.05 10^4 M^−1	3.02 10^6 M^−1	45.6 µM	30.8 µM		21.2 µM	1.0	3.622 × 10^4 10^4 M^−1	> 50 µM	> 50 µM				
CC(C)(C)c1ccnc(-c2cc(C(C)(C)C)ccn2)c1.[Cl-].[Cl-].[Ru+2].c1ccccc1 [Complex 5, [Ru-η^6-benzene-(4,4′-(C4H9)2bipy)Cl]Cl]					2.45									
COC(=O)c1ccnc(-c2cc(C(=O)OC)ccn2)c1.[Cl-].[Cl-].[Ru+2].c1ccccc1 [Complex 6, [Ru-η^6-benzene-(4,4′-(COOCH3)2bipy)Cl]Cl]	6.69 10^4 M^−1	3.34 10^6 M^−1	49.2 µM	49.3 µM	−1.12	41.2 µM	1.0	3.103 × 10^4 10^4 M^−1	14.5 µM	> 50 µM				
Cc1ccc(C(C)C)cc1.O=C(O)c1ccnc(-c2cc(C(=O)O)ccn2)c1.[Cl-].[Cl-].[Ru+2] [Complex 2, [Ru-η^6-p-cymene-(4,4′-(COOH)2bipy)Cl]Cl]	4.89 10^4 M^−1		> 50 µM	> 50 µM	−1.65	14.5 µM	1.2	6.446 × 10^4 10^4 M^−1	> 50 µM	> 50 µM	more soluble in high polar organic solvents	18.24%	10.9%	7.34%
CCOC(=O)c1ccnc(-c2cc(C(=O)OCC)ccn2)c1.[Cl-].[Cl-].[Ru+2].c1ccccc1 [Complex 7, [Ru-η^6-benzene-(4,4′-(COOC2H5)2bipy)Cl]Cl]	7.21 10^4 M^−1	3.61 10^6 M^−1	33.9 µM	23.8 µM	−0.14	19.8 µM	1.1	4.779 × 10^4 10^4 M^−1	41.6 µM	> 50 µM				
N.N.[Cl][Pt][Cl] [Cisplatin, reference compound]			33.7 µM	22.9 µM		> 50 µM			49.1 µM	29.1 µM				
